Measurements reported in ChEMBL document CHEMBL6121036, “Evaluation of Cereblon-Directing Warheads for the Development of Orally Bioavailable PROTACs” (J Med Chem, 2025).
≈ marks a conversion by molar mass, not a printed value. Calls of active or inactive are those of the source. The calls are words filed in the database; no cut-off is given here.

How the values were obtained:
[1] = biological target: T1, Protein cereblon/Bromodomain-containing protein 4 (Homo sapiens, UniProt O60885+Q96SW2); assay: PROTAC activity at CRBN/Hibit-tagged BRD4 (unknown origin) expressed in HEK293 cells co-expressing LgBiT assessed as degradation of BRD4 incubated for 24 hrs by […] glo-max assay; format: cell-based
[2] = biological target: T1, Protein cereblon/Bromodomain-containing protein 4; assay: PROTAC activity at CRBN/Hibit-tagged BRD4 (unknown origin) expressed in HEK293 cells co-expressing LgBiT assessed as degradation of BRD4 incubated for 24 hrs by […] glo-max assay relative to control; format: cell-based
[3] = biological target: T1, Protein cereblon/Bromodomain-containing protein 4; assay: PROTAC activity at CRBN/Hibit-tagged BRD4 (unknown origin) expressed in HEK293 cells co-expressing LgBiT assessed as degradation rate incubated for 24 hrs by […] glo-max assay; format: cell-based
MV4-11 = assay: Cytotoxicity against human MV4-11 cells assessed as reduction in cell viability incubated for 72 hrs by cell-titer glo assay; format: functional, cell-based; conditions: MV4-11, 72 h
HD-MB03 = assay: Cytotoxicity against human HD-MB03 cells assessed as reduction in cell viability incubated for 72 hrs by cell-titer glo assay; format: functional, cell-based; conditions: HD-MB03, 72 h
[4] = Kinetic aqueous solubility of the compound at pH 7.4; format: physicochemical; conditions: read-out: Kinetic_solubility
[5] = Metabolic stability in mouse liver microsomes assessed as half life; format: ADME, Microsome; conditions: for half-life: liver microsomes
[6] = biological target: Protein cereblon/Bromodomain-containing protein 4/DNA damage-binding protein 1 (Homo sapiens) (UniProt O60885+Q96SW2+Q16531); assay: Binding affinity to his-tagged CRBN/DDB1/GST-tagged BRD4 (49 to 170 residues)(unknown origin) assessed as ternary complex formation (AUC) incubated for 1 hr by luminescence based Alphascreen assay; format: protein assay
[7] = Cmax in female CD1 mouse at 10 mg/kg, po measured upto 24 hrs by LC-MS/MS analysis; format: ADME, organism-based; conditions: in vivo
[8] = Chemical stability in human MV4-11 cell culture media at 400 uM measured upto 72 hrs by UPLC analysis; format: physicochemical
[9] = Chemical stability in human HD-MB03 cell culture media at 400 uM measured upto 72 hrs by UPLC analysis; format: physicochemical
[10] = Effect on BRD3 level in human MV4-11 cells assessed as fold change at 100 nM measured after 4 hrs; format: functional
[11] = Effect on BRD4 level in human MV4-11 cells assessed as fold change at 100 nM measured after 4 hrs; format: functional
[12] = Effect on BRD2 level in human MV4-11 cells assessed as fold change at 100 nM measured after 4 hrs; format: functional
[13] = Effect on MYC level in human MV4-11 cells assessed as fold change at 100 nM measured after 4 hrs; format: functional
[14] = Effect on FYTTD1 level in human MV4-11 cells assessed as fold change at 100 nM measured after 4 hrs; format: functional
[15] = Effect on CCNF level in human MV4-11 cells assessed as fold change at 100 nM measured after 4 hrs; format: functional
[16] = Effect on CDC42EP3 level in human MV4-11 cells assessed as fold change at 100 nM measured after 4 hrs; format: functional
[17] = Effect on MCL1 level in human MV4-11 cells assessed as fold change at 100 nM measured after 4 hrs; format: functional
[18] = Effect on PLAU level in human MV4-11 cells assessed as fold change at 100 nM measured after 4 hrs; format: functional
[19] = Effect on ZFP36L2 level in human MV4-11 cells assessed as fold change at 100 nM measured after 4 hrs; format: functional
[20] = Effect on FGL2 level in human MV4-11 cells assessed as fold change at 100 nM measured after 4 hrs; format: functional
[21] = Effect on NSA2 level in human MV4-11 cells assessed as fold change at 100 nM measured after 4 hrs; format: functional
[22] = Effect on CCND3 level in human MV4-11 cells assessed as fold change at 100 nM measured after 4 hrs; format: functional
[23] = Effect on AURKA level in human MV4-11 cells assessed as fold change at 100 nM measured after 4 hrs; format: functional
[24] = Effect on NOP53 level in human MV4-11 cells assessed as fold change at 100 nM measured after 4 hrs; format: functional
[25] = Effect on PLK1 level in human MV4-11 cells assessed as fold change at 100 nM measured after 4 hrs; format: functional
[26] = Effect on RNF166 level in human MV4-11 cells assessed as fold change at 100 nM measured after 4 hrs; format: functional
[27] = Effect on ZBTB21 level in human MV4-11 cells assessed as fold change at 100 nM measured after 4 hrs; format: functional
[28] = Effect on TP53 level in human MV4-11 cells assessed as fold change at 100 nM measured after 4 hrs; format: functional
[29] = Permeability in MDCK-II cells incubated for 1 hr by UPLC/MS/UV analysis; format: ADME, cell-based, Canis lupus familiaris; conditions: dog, read-out: permeability
[30] = Stability in mouse plasma assessed as half life by UPLC-MS/MS analysis; format: ADME, cell-free
[31] = AUC last in female CD1 mouse at 10 mg/kg, po measured upto 24 hrs by LC-MS/MS analysis; format: ADME, organism-based; conditions: in vivo
HEK293 = assay: Cytotoxicity against HEK293 cells expressing LgBiT fused HiBiT-BRD2 measured after 24 hrs by cell titer-glo assay; format: toxicity, cell-based; conditions: human, hek293, 24 h
[32] = biological target: T2, Protein cereblon/Bromodomain-containing protein 2 (Homo sapiens) (UniProt P25440+Q96SW2); assay: PROTAC activity at CRBN/Hibit-tagged CRISPR BRD2 (unknown origin) expressed in HEK293 cells coexpressing LgBiT assessed as degradation of BRD2 by […] glo-max assay; format: cell-based
[33] = biological target: T3, Protein cereblon/Bromodomain-containing protein 3 (Homo sapiens) (UniProt Q15059+Q96SW2); assay: PROTAC activity at CRBN/Hibit-tagged CRISPR BRD3 (unknown origin) expressed in HEK293 cells co-expressing LgBiT assessed as degradation of BRD3 by […] glo-max assay; format: cell-based
[34] = biological target: T1, Protein cereblon/Bromodomain-containing protein 4; assay: PROTAC activity at CRBN/Hibit-tagged CRISPR BRD4 (unknown origin) expressed in HEK293 cells co-expressing LgBiT assessed as degradation of BRD4 by […] glo-max assay; format: cell-based
[35] = biological target: T2, Protein cereblon/Bromodomain-containing protein 2 (Homo sapiens); assay: PROTAC activity at CRBN/Hibit-tagged CRISPR BRD2 (unknown origin) expressed in HEK293 cells coexpressing LgBiT assessed as degradation of BRD2 by […] glo-max assay relative to control; format: cell-based
[36] = biological target: T3, Protein cereblon/Bromodomain-containing protein 3 (Homo sapiens); assay: PROTAC activity at CRBN/Hibit-tagged CRISPR BRD3 (unknown origin) expressed in HEK293 cells co-expressing LgBiT assessed as degradation of BRD3 by […] glo-max assay relative to control; format: cell-based
[37] = biological target: T1, Protein cereblon/Bromodomain-containing protein 4; assay: PROTAC activity at CRBN/Hibit-tagged CRISPR BRD4 (unknown origin) expressed in HEK293 cells co-expressing LgBiT assessed as degradation of BRD4 by […] glo-max assay relative to control; format: cell-based
[38] = biological target: T2, Protein cereblon/Bromodomain-containing protein 2 (Homo sapiens); assay: PROTAC activity at CRBN/Hibit-tagged CRISPR BRD2 (unknown origin) expressed in HEK293 cells coexpressing LgBiT assessed as degradation of BRD2 measured after 10 to 14 hrs by […] glo-max assay; format: cell-based; conditions: time 10-14 hrs
[39] = biological target: T3, Protein cereblon/Bromodomain-containing protein 3 (Homo sapiens); assay: PROTAC activity at CRBN/Hibit-tagged CRISPR BRD3 (unknown origin) expressed in HEK293 cells co-expressing LgBiT assessed as degradation of BRD3 measured after 13 to 16 hrs by […] glo-max assay; format: cell-based; conditions: time 13-16 hrs
[40] = biological target: T1, Protein cereblon/Bromodomain-containing protein 4; assay: PROTAC activity at CRBN/Hibit-tagged CRISPR BRD4 (unknown origin) expressed in HEK293 cells co-expressing LgBiT assessed as degradation of BRD4 measured after 18 to 24 hrs by […] glo-max assay; format: cell-based; conditions: time 18-24 hrs
[41] = biological target: Protein cereblon (Homo sapiens) (UniProt Q96SW2); assay: Binding affinity to CRBN (unknown origin)
[42] = Permeability in human MV4-11 cells assessed as cell availability index relative to lenalidomide; format: ADME, cell-based

**Q.** With `Cc1sc2c(c1C)C(c1ccc(Cl)cc1)=N[C@@H](CC(=O)N1CCC(CN3CCN(c4ccc(N5CCC(=O)NC5=O)cc4)CC3)CC1)c1nnc(C)n1-2` as the compound, how does the DC50 [1] read?
**A.** 2740 pM

**Q.** And the Emax [2]?
**A.** 46.4%

**Q.** And the Activity [3]?
**A.** 0.047 fRLU/hr

**Q.** What about the IC50 (MV4-11) of the same compound?
**A.** 660 pM

**Q.** What about the IC50 (HD-MB03) of the same compound?
**A.** 15100 pM

**Q.** And the solubility kinetic [4]?
**A.** 72.5 µM (≈ 54.7 µg/mL)

**Q.** And the half-life [5]?
**A.** 1.42 h

**Q.** And the Activity [6]?
**A.** Active

**Q.** What about the Cmax [7] of the same compound?
**A.** 345 ng/mL

**Q.** What about the Stability [8] of the same compound?
**A.** Stable

**Q.** What about the Stability [9] of the same compound?
**A.** Stable

**Q.** What about the “fold change (FC)” value [10] of the same compound?
**A.** -2.99

**Q.** What about the “fold change (FC)” value [11] of the same compound?
**A.** -2.92

**Q.** What about the “fold change (FC)” value [12] of the same compound?
**A.** -2.79

**Q.** What about the “fold change (FC)” value [13] of the same compound?
**A.** -2.09

**Q.** What about the “fold change (FC)” value [14] of the same compound?
**A.** -1.21

**Q.** What about the “fold change (FC)” value [15] of the same compound?
**A.** -0.89

**Q.** And the “fold change (FC)” value [16]?
**A.** -1.16

**Q.** And the “fold change (FC)” value [17]?
**A.** -1.01

**Q.** What about the “fold change (FC)” value [18] of the same compound?
**A.** -0.89

**Q.** What about the “fold change (FC)” value [19] of the same compound?
**A.** -0.91

**Q.** And the “fold change (FC)” value [20]?
**A.** -1

**Q.** What about the “fold change (FC)” value [21] of the same compound?
**A.** -0.85

**Q.** What about the “fold change (FC)” value [22] of the same compound?
**A.** -0.7

**Q.** What about the “fold change (FC)” value [23] of the same compound?
**A.** -0.74

**Q.** What about the “fold change (FC)” value [24] of the same compound?
**A.** -0.72

**Q.** And the “fold change (FC)” value [25]?
**A.** -0.67

**Q.** What about the “fold change (FC)” value [26] of the same compound?
**A.** -0.3

**Q.** And the “fold change (FC)” value [27]?
**A.** -0.1

**Q.** And the “fold change (FC)” value [28]?
**A.** 1.65

**Q.** What about the Papp at 1 h [29] of the same compound?
**A.** 0.29 ×10⁻⁶ cm/s

**Q.** What about the half-life [30] of the same compound?
**A.** 16.5 h

**Q.** And the AUC(0-t) at 24 h [31]?
**A.** 1420 ng·h/mL

**Q.** Which results are given for `Cc1sc2c(c1C)C(c1ccc(Cl)cc1)=N[C@@H](CC(=O)N1CCC(CN3CCN(c4ccc5c(c4)n(C)c(=O)n5C4CCC(=O)NC4=O)CC3)CC1)c1nnc(C)n1-2` (some centres not stated)?
**A.** DC50 [1]: 570 pM; Emax [2]: 96.9%; Activity [3]: 0.343 fRLU/hr; IC50 (MV4-11): 30 pM; IC50 (HD-MB03): 560 pM; solubility kinetic [4]: 74.5 µM (≈ 61.3 µg/mL); half-life [5]: 2.17 h; t1/2 ([5]; microsomes): 2.17 h; Activity [6]: Active; Activity (HEK293): Non-toxic; Cmax [7]: 23 ng/mL; Activity [32]: Active; Activity [33]: Active; Activity [34]: Active; Activity [35]: > 95%; Activity [36]: > 95%; Activity [37]: > 90%; Activity [38]: Active; Activity [39]: Active; Activity [40]: Active; Activity [41]: Active; Ratio [42]: 3.7; fold change (FC) [10]: -4.26; fold change (FC) [11]: -3.81; fold change (FC) [12]: -3.63; fold change (FC) [13]: -2.43; fold change (FC) [14]: -1.69; fold change (FC) [15]: -2.01; fold change (FC) [16]: -1.05; fold change (FC) [17]: -1.19; fold change (FC) [18]: -1.08; fold change (FC) [19]: -1.03; fold change (FC) [20]: -0.86; fold change (FC) [21]: -1.12; fold change (FC) [22]: -0.86; fold change (FC) [23]: -1.01; fold change (FC) [24]: -0.87; fold change (FC) [25]: -0.76; fold change (FC) [26]: -0.24; fold change (FC) [27]: -0.13; fold change (FC) [28]: 1.88; Papp at 1 h [29]: 0.95 ×10⁻⁶ cm/s; half-life [30]: 68.4 h; AUC(0-t) at 24 h [31]: 97 ng·h/mL
